The results in this text go back to patent US11767305B2, “Advantageous benzofuran compositions for mental disorders or enhancement” (Tactogen Inc, priority 2020, dated 2023).

Each structure is given as a SMILES string.

One assay concerns the target 5-HT2A receptors (Homo sapiens (Human), UniProt P28223). Nature of the assay: 5-HT2A agonist and antagonist calcium assay (Calcium NWPLUS, FLIPR). It counts as cell-based. Here is the method: The DiscoveRx Calcium NWPLUS Assay was used for detection of changes in intracellular calcium as signalled by an increase of dye fluorescence in cells expressing 5-HT2A receptors. Signal was measured on a fluorescent plate reader equipped with fluidic handling capable of detecting rapid changes in fluorescence upon compound stimulation.
To conduct the assay, cell lines were expanded from freezer stocks according to standard procedures. Cells (10,000 cells/well) were seeded in a total volume of 50 μL (200 cells/μL) into black-walled, clear-bottom, Poly-D-lysine coated 384-well microplates and incubated at 37-C for the appropriate time prior to testing. DMSO concentration for all readouts was ≤0.2%.
Assays were performed in 1×DyeLoading Buffer consisting of 1×Dye (DiscoverX, Calcium No WashPLUS kit, Catalog No. 90-0091), 1×Additive A and 2.5 mM Probenecid in HBSS/20 mM Hepes. Probenecid was prepared fresh. Cells were loaded with dye prior to testing. Media was aspirated from cells and replaced with 25 μL Dye Loading Buffer. Test compounds were assayed at 10 concentrations with the highest concentration either 30 or 10 μM and subsequent concentrations using a 0.33 dilution factor. Cells with testing sample were incubated for 45 minutes at 37° C. and then 20 minutes at room temperature. After dye loading, cells were removed from the incubator and 25 μL of 2×compound in HBSS/20 mM Hepes was added using a FLIPR Tetra (MDS). […]
Compound agonist activity was measured on a FLIPR Tetra. Calcium mobilization was monitored for 2 minutes with a 5 second baseline read. FLIPR read-Area under the curve was calculated for the two minute read. Compound activity was analyzed using CBIS data analysis suite (ChemInnovation, CA). Percentage activity was calculated as 100%×(mean RFU of test sample−mean RFU of vehicle control)/(mean MAX RFU control ligand −mean RFU of vehicle control). For antagonist mode assays, percentage inhibition was calculated as 100%×(1−(mean RFU of test sample−mean RFU of vehicle control)/(mean RFU of EC80 control−mean RFU of vehicle control)).

The next assay concerns the target 5-HT2B (Homo sapiens (Human), UniProt P41595). Nature of the assay: 5-HT2B agonist and antagonist calcium assay (Calcium NWPLUS, FLIPR). It counts as cell-based.
Another assay has as its target adrenergic β2 receptor (Homo sapiens (Human), UniProt P07550). The experiment in a line: Adrenergic β2 receptor cAMP secondary messenger antagonist assay. Format: cell-based. From the text:
This assay used a panel of CHO-K1 cell lines stably expressing non-tagged GPCRs that endogenously signal through cAMP. Hit Hunter® cAMP assays monitored the activation of a GPCR via Gi and Gs secondary messenger signaling in a homogenous, non-imaging assay format using DiscoverX Enzyme Fragment Complementation (EFC) with β-galactosidase as the functional endpoint.
The enzyme was split into two complementary portions: Enzyme Acceptor (EA) and Enzyme Donor (ED). In the assay, exogenously introduced ED fused to cAMP (ED-cAMP) competed with endogenously generated cAMP for binding to an anti-cAMP-specific antibody. […] Active enzyme could then convert a chemiluminescent substrate, generating an output signal detectable on a standard microplate reader.
Cell lines were expanded from freezer stocks according to standard procedures. Cells were seeded in a total volume of 20 μL into white walled, 384-well microplates and incubated at 37° C. for the appropriate time prior to testing. cAMP modulation was determined using the DiscoverX HitHunter cAMP XS+ assay. […]
Compound activity was analyzed using CBIS data analysis suite (ChemInnovation, CA). For Gs antagonist mode assays, percentage inhibition was calculated as 100%×(1−(mean RLU of test sample−mean RLU of vehicle control)/(mean RLU of EC80 control−mean RLU of vehicle control)).

The target in the next assay is MAO-A (Homo sapiens (Human), UniProt P21397). The experiment in a line: MAO-A inhibition assay (kynuramine). Format: biochemical.
The target of assay [1] is human 5-HT transporter (hSERT) (Homo sapiens (Human), UniProt P31645). The experiment in a line: Human serotonin transporter  assay ([3H]imipramine radioligand, CHO cells). Format: binding. Particulars: SERT IC50 (μM), 2 nM [3H]imipramine. The method, then: Benzofuran derivatives were evaluated for inhibiting the human 5-HT transporter (hSERT) as expressed in CHO cells using an antagonist radioligand assay (Tatsumi, M. et al. (1999), Eur. J Pharmacol., 368: 277-283). […] Test compounds were assayed in three trials at […], and 0.94868 μM.

The target in assay [2] is serotonin (5-HT) transporter (SERT) (Rattus norvegicus (Rat), UniProt P31652). The experiment in a line: Rat synaptosome SERT [3H]5-HT uptake inhibition assay. Particulars: Inhibition of [3H]5-HT Uptake at SERT IC50 (nM), 5 nM [3H]5-HT.

Chain of adrenergic β2 receptor (P07550 whole entry, looked up, the tested form may be a part): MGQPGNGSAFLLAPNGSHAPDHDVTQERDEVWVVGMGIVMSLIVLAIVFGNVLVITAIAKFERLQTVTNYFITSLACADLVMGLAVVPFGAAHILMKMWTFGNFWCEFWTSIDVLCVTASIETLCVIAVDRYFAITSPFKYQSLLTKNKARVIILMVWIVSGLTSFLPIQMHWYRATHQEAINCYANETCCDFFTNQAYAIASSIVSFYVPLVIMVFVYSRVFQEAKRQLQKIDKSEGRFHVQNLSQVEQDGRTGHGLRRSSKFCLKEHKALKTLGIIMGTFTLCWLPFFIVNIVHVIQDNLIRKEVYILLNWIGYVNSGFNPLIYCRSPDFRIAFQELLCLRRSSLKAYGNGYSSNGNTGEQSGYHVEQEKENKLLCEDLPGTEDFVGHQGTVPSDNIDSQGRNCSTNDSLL
Chain of MAO-A (P21397 whole entry, looked up, species assumed): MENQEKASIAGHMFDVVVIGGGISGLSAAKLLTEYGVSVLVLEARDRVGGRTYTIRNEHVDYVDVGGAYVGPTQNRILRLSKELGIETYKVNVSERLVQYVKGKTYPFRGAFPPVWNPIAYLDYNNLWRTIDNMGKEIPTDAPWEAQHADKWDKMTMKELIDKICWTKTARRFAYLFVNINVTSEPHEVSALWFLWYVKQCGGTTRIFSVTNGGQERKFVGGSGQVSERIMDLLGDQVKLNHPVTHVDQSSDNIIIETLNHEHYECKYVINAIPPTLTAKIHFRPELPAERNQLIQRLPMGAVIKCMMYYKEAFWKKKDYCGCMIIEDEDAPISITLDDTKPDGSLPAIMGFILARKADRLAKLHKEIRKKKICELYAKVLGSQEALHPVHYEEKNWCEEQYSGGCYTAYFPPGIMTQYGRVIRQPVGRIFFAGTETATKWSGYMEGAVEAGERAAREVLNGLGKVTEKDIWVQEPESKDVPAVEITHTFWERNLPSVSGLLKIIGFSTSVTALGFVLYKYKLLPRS
Chain of 5-HT2B (P41595 whole entry, looked up, species assumed): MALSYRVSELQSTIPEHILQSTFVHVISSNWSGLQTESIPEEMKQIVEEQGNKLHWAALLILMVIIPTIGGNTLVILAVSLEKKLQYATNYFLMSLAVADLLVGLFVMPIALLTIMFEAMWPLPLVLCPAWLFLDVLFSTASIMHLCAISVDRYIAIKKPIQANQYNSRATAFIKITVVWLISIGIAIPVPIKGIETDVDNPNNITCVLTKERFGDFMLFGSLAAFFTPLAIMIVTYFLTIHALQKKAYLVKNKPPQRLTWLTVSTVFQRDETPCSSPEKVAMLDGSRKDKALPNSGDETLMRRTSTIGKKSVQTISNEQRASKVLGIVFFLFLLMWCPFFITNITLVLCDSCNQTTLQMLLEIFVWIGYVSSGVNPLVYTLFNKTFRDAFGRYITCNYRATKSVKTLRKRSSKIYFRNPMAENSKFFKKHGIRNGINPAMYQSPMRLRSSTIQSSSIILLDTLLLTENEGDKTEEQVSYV
Protocol for MAO-A: MAO-A and test compounds were preincubated at 37° C. for 15 minutes before substrate addition. Test compounds were assayed at 10 concentrations with the highest concentration either 30 or 10 μM and subsequent concentrations using a 0.33 dilution factor. The reaction was initiated by addition of kynuramine and incubated at 37° C. for 30 minutes. The reaction was terminated by addition of NaOH. The amount of 4-hydroquioline formed was determined through spectrofluorimetric readout with the emission detection at 380 nm and excitation wavelength 310 nm.

As to `CN[C@H](C)Cc1ccc2ccoc2c1` [Compound R-6-MAPB, (R)-1-(benzofuran-6-yl)-N-methylpropan-2-amine], on 5-HT2A receptors, the EC50 was 4.62 µM. Moreover, the IC50 at 5-HT2B stood at 0.4 µM; against adrenergic β2 receptor it was 4.06 µM; against MAO-A, 2.12 µM; in assay [1], 24 µM; in assay [2], 623 ± 31.2 nM.

Broadly, the EC50 is the concentration that produces a half-maximal response. What is called IC50 is the midpoint of a concentration-inhibition curve.
